Several values for one entry are separate records, joined by “and”; a condition that tells them apart may be missing. Identical values can stand only once.
What was measured:
[1] = test system: Mouse malignant melanoma B16-F0; assay: B16 melanoma hematogenous lung metastasis model; assay type: in vivo; details: for invasion of lymphocytes into metastatic lesions observed in cases: animals with metastatic lesions; for Metastatic nodules, Abdominal cavity Adipose tissue / Metastatic nodules, Abdominal cavity Adrenal gland / Metastatic nodules, Abdominal cavity Diaphragm / Metastatic nodules, Abdominal cavity Kidney / Metastatic nodules, Abdominal cavity Ovary / Metastatic nodules, Abdominal cavity Spleen / Metastatic nodules, Thoracic cavity / Metastatic nodules, Tissue around glandual clitoris: autopsy day 14, individual animals; for Number of lung tumor nodules, Range (mininum-maximum) / Number of mice having lung tumor nodules: day 14, N 6; for Number of lung tumor nodules: day 14, mean ± S.D.; for Number of lung tumor nodules / Number of mice having metastatic lesions: N 6; for Number of mice having metastatic lesions / Findings: Invasion of lymphocytes into melanoma metastatic lesion: lung histopathology; for Findings: Invasion of lymphocytes into melanoma metastatic lesion: individual animals; for Number of metastatic lesions per section, Large size: major diameter 0.65 mm ≦ and <1.3 mm; for Number of metastatic lesions per section, Large size / Number of metastatic lesions per section, Small size / Number of metastatic lesions per section, Total: mean ± S.D.; for Number of metastatic lesions per section, Small size: major diameter <0.65 mm, left lobe and posterior lobe; as to Metastatic nodules, Abdominal cavity Adipose tissue: key: −: Absent; +: Present; as to Metastatic nodules, Abdominal cavity Adrenal gland: key: −: Absent; +: Present; as to Metastatic nodules, Abdominal cavity Diaphragm: key: −: Absent; +: Present; as to Metastatic nodules, Abdominal cavity Kidney: key: −: Absent; +: Present; as to Metastatic nodules, Abdominal cavity Ovary: key: −: Absent; +: Present; as to Metastatic nodules, Abdominal cavity Spleen: key: −: Absent; +: Present; as to Metastatic nodules, Thoracic cavity: key: −: Absent; +: Present; as to Metastatic nodules, Tissue around glandual clitoris: key: −: Absent; +: Present
Protocol: cPA-19 and cPA-20 were used as test substances. 0.1 w/v % BSA/PBS which was prepared by dissolving Albumin, Bovine [essentially Fatty Acid Free] (BSA, Lot No. 89H7604, Sigma chemical company) in Ca^2+ and Mg^2+ free PBS (pH 7.2), was used as a medium After preparation, the solution was sterilized by filtration using a filter (0.22 μm, Millipore). Preparation was performed when used. cPA-5 was used as a positive control substance.
A medium was added in a volume required for a test substance or a positive control substance. Dissolution was performed by ultrasonication, thereby preparing a 0.16 mg/mL solution. The 0.16 mg/mL solution containing a test substance was diluted with a medium, thereby preparing 0.08 and 0.02 mg/mL solutions. All mixtures were prepared when used.
Mice were purchased from CHARLES RIVER JAPAN. INC. The line employed herein was C57BL/6NCrj (sexuality: female). The number of animals kept in stock was 60, and the age of these animals when kept in stock was 4 weeks. […] The environmental conditions for the test system were as follows:
Mouse malignant melanoma B16-F0 was used as a tumor cell. The cell was purchased from Dainippon Pharmaceutical Co., Ltd.
Dulbecco's Modified Eagle's Media containing 10% feral bovine serum and kanamycin were used for culture. […] A medium was added to stop the action of trypsin while pipetting, thereby preparing a cell suspension. The suspension was diluted by one-tenth with a medium for culturing, followed by subculturing until it reached a volume sufficient for grafting.
A cell suspension was prepared by the same technique as the subculture method. Specifically, the cells were washed with a Ca^2+ and Mg^2+ free phosphate buffer [PBS(−)], and then harvested. The harvested cells were suspended in a 10 mL of PBS(−), thereby preparing a cell suspension. The number of cells in the cell suspension was measured to obtain the total cell number. 50 μL of the cell suspension, 100 μL of 0.4% trypan blue liquid and 100 μL of PBS(−) were mixed, and then viable count was measured. The survival rate of the cells was calculated from the viable count and total cell number.
Based on the body weight on the day of the administration of the test substance, mice were grouped into 8 test groups according to the stratified continuous randomization method as shown in Table 2 below.
(§1) The mixture was administered via the caudal vein. The number of grafted cells was 5×10^5 cells/body. The dose of the test substance was 0.001, 0.004 or 0.008 mg/body, and the dose of the positive control substance was 0.008 mg/body.
On day 14 after the administration of the test substance, blood was collected from the posterior portion of the abdominal vena cava under isoflurane anesthesia. After the mice were sacrificed by blood-letting, the presence or absence of intrapleural and intraperitoneal metastatic nodules was confirmed. Lungs were extracted, and then fixed with a 10% neutral buffered formalin solution. The number of nodules resulting from lung metastasis was measured under a stereoscopic microscope (magnification: 10 times).
After the measurement of the number of nodules resulting from lung metastasis, samples were paraffin-embedded, and then thin sections were prepared. Hematoxylin eosinic-stained samples were prepared from these sections. The number of metastatic lesions in the certain portions of the left lobe and the posterior lobe was measured, and then the lesions were sorted by size. On the basis of the diameter (0.65 mm) of an object lens (×40), metastatic lesions with major diameters of less than 0.65 mm were classified as having a small size, and those with major diameters of between 0.65 mm or more and less than 1.30 mm were classified as having a large size. Furthermore, the degree of invasion of lymphocytes into metastatic lesions was confirmed qualitatively.
The representative value of each test group was denoted as mean±standard deviation (mean±S.D.). Differences in mean values were examined as follows.

[2] = General state and body weight of B16-F0 melanoma-bearing mice; assay type: in vivo; details: for Body weight (g) day 0: day 0, mean ± S.D.; for Body weight (g) day 0 / Body weight (g) day 4 / Body weight (g) day 7 / Body weight (g) day 11 / Body weight (g) day 14: N 6; for Body weight (g) day 4: day 4, mean ± S.D.; for Body weight (g) day 7: day 7, mean ± S.D.; for Body weight (g) day 11: day 11, mean ± S.D.; for Body weight (g) day 14: day 14, mean ± S.D.
Protocol: as §1
Observation period ranged from days 0 to 14 after the administration of the test substance. Life and death were confirmed every day during this period, and the general state was observed. Body weight measurement was performed twice a week.
The representative value of each test group was denoted as mean±standard deviation (mean±S.D.). Differences in mean values were examined as follows. The number of metastatic nodules was examined by Dunnett's multiple comparison test between the medium group and the cPA-19 group, and between the medium group and the cPA-20 group. The same was examined by the Student's T-test between the medium group and cPA-5 group. The number of metastatic lesions was examined by the Wilcoxon test using the medium group as a control. The number of animals having metastatic nodules or metastatic lesions was examined by Fisher's extract probability test using the medium group as a control. The significance levels were 1% and 5%.

[3] = 0.001 mg/body i.v., autopsy, 6 mice
[4] = 0.004 mg/body i.v., autopsy, 6 mice
[5] = 0.008 mg/body i.v., autopsy, 6 mice

For carba-Ole-cPA [cPA-19], the “invasion of lymphocytes into metastatic lesions observed in cases” value ([1]; 0.001 mg/body i.v.) was 1 out of 6, the “Metastatic nodules, Abdominal cavity Adipose tissue” value ([1]; 0.001 mg/body i.v.) was “+ and − (5×)” and the “Metastatic nodules, Abdominal cavity Adrenal gland” value ([1]; 0.001 mg/body i.v.) was “+ and − (5×)”. For the same substance, the “Metastatic nodules, Abdominal cavity Diaphragm” value ([1]; 0.001 mg/body i.v.) was “−”, the “Metastatic nodules, Abdominal cavity Kidney” value ([1]; 0.001 mg/body i.v.) was “+ (2×) and − (4×)” and the “Metastatic nodules, Abdominal cavity Ovary” value ([1]; 0.001 mg/body i.v.) was “+ (2×) and − (4×)”. For the same substance, the “Metastatic nodules, Abdominal cavity Spleen” value ([1]; 0.001 mg/body i.v.) was “− (5×) and +”, the “Metastatic nodules, Thoracic cavity” value ([1]; 0.001 mg/body i.v.) was “− (5×) and +” and the “Metastatic nodules, Tissue around glandual clitoris” value ([1]; 0.001 mg/body i.v.) was “−”. For the same substance, the “cases with metastatic nodules in adipose tissue” value [1, 3] was 1 case, the “cases with metastatic nodules in the adrenal gland” value [1, 3] was 1 case and the “cases with metastatic nodules in the kidney” value [1, 3] was 2 cases. For the same substance, the “cases with metastatic nodules in the ovary” value [1, 3] was 2 cases, the “cases with metastatic nodules in the spleen” value (shortened to “cases … in the spleen”) [1, 3] was 1 case and the “cases with metastatic nodules in the thoracic cavity” value [1, 3] was 1 case. For the same substance, the “Number of lung tumor nodules, Range (mininum-maximum)” value (shortened to “Number of lung tumor nodules, Range”) ([1]; 0.001 mg/body i.v.) was 37-66, the “Number of mice having lung tumor nodules” value ([1]; 0.001 mg/body i.v.) was 6 and the “Number of lung tumor nodules” value ([1]; 0.001 mg/body i.v.) was 54 ± 12. The “Number of mice having metastatic lesions” value ([1]; 0.001 mg/body i.v.) was 6, the “Findings: Invasion of lymphocytes into melanoma metastatic lesion” value ([1]; 0.001 mg/body i.v.) was “− (5×) and +” and the “Number of metastatic lesions per section, Large size” value (“Number … per section, Large size” for short) ([1]; 0.001 mg/body i.v.) was 0.7 ± 0.8. For the same substance, the “Number of metastatic lesions per section, Small size” value (“Number … per section, Small size” for short) ([1]; 0.001 mg/body i.v.) was 3.0 ± 1.3, the “Number of metastatic lesions per section, Total” value (“Number … per section, Total” for short) ([1]; 0.001 mg/body i.v.) was 3.7 ± 1.8 and the “number of metastatic nodules of B16-F0 in the lungs versus medium group (in words)” value ([1]; 0.004 mg/body i.v.) was “significant decrease in the number of metastatic nodules”. The “invasion of lymphocytes into metastatic lesions observed in cases” value ([1]; 0.004 mg/body i.v.) was “no invasions were observed in 2 cases”, the “Metastatic nodules, Abdominal cavity Adipose tissue” value ([1]; 0.004 mg/body i.v.) was “− (5×) and +” and the “Metastatic nodules, Abdominal cavity Adrenal gland” value ([1]; 0.004 mg/body i.v.) was “− (5×) and +”. For the same substance, the “Metastatic nodules, Abdominal cavity Diaphragm” value ([1]; 0.004 mg/body i.v.) was “−”, the “Metastatic nodules, Abdominal cavity Kidney” value ([1]; 0.004 mg/body i.v.) was “−” and the “Metastatic nodules, Abdominal cavity Ovary” value ([1]; 0.004 mg/body i.v.) was “−”. The “Metastatic nodules, Abdominal cavity Spleen” value ([1]; 0.004 mg/body i.v.) was “+ and − (5×)”, the “Metastatic nodules, Thoracic cavity” value ([1]; 0.004 mg/body i.v.) was “−” and the “Metastatic nodules, Tissue around glandual clitoris” value ([1]; 0.004 mg/body i.v.) was “−”. For the same substance, the “cases with metastatic nodules in adipose tissue” value [1, 4] was 1 case, the “cases with metastatic nodules in the adrenal gland” value [1, 4] was 1 case and the “cases … in the spleen” value [1, 4] was 1 case. The “metastatic nodules in the thoracic cavity” value [1, 4] was “no metastatic nodules were observed”, the “Number of lung tumor nodules, Range” value ([1]; 0.004 mg/body i.v.) was 2-6 and the “Number of mice having lung tumor nodules” value ([1]; 0.004 mg/body i.v.) was 6. The “Number of lung tumor nodules” value ([1]; 0.004 mg/body i.v.) was 4 ± 2, the “Number of mice having metastatic lesions” value ([1]; 0.004 mg/body i.v.) was 2 & and the “Findings: Invasion of lymphocytes into melanoma metastatic lesion” value ([1]; 0.004 mg/body i.v.) was “−”. The “Number … per section, Large size” value ([1]; 0.004 mg/body i.v.) was 0 ± 0!!, the “Number … per section, Small size” value ([1]; 0.004 mg/body i.v.) was 0.3 ± 0.5 and the “Number … per section, Total” value ([1]; 0.004 mg/body i.v.) was 0.3 ± 0.5!. For the same substance, the “metastasis / number of metastatic nodules in the lungs versus medium group (in words)” value ([1]; 0.008 mg/body i.v.) was “almost completely suppressed metastasis”, the “Metastatic nodules, Abdominal cavity Adipose tissue” value ([1]; 0.008 mg/body i.v.) was “−” and the “Metastatic nodules, Abdominal cavity Adrenal gland” value ([1]; 0.008 mg/body i.v.) was “−”. For the same substance, the “Metastatic nodules, Abdominal cavity Diaphragm” value ([1]; 0.008 mg/body i.v.) was “−”, the “Metastatic nodules, Abdominal cavity Kidney” value ([1]; 0.008 mg/body i.v.) was “−” and the “Metastatic nodules, Abdominal cavity Ovary” value ([1]; 0.008 mg/body i.v.) was “−”. The “Metastatic nodules, Abdominal cavity Spleen” value ([1]; 0.008 mg/body i.v.) was “− (5×) and +”, the “Metastatic nodules, Thoracic cavity” value ([1]; 0.008 mg/body i.v.) was “−” and the “Metastatic nodules, Tissue around glandual clitoris” value ([1]; 0.008 mg/body i.v.) was “−”. For the same substance, the “cases … in the spleen” value [1, 5] was 1 case, the “metastatic nodules in the thoracic cavity” value [1, 5] was “no metastatic nodules were observed” and the “Number of lung tumor nodules, Range” value ([1]; 0.008 mg/body i.v.) was 0. The “Number of mice having lung tumor nodules” value ([1]; 0.008 mg/body i.v.) was 0 &&, the “Number of lung tumor nodules” value ([1]; 0.008 mg/body i.v.) was 0 ± 0 and the “Number of mice having metastatic lesions” value ([1]; 0.008 mg/body i.v.) was 0 &&. For the same substance, the “Number … per section, Large size” value ([1]; 0.008 mg/body i.v.) was 0 ± 0!!, the “Number … per section, Small size” value ([1]; 0.008 mg/body i.v.) was 0 ± 0! and the “Number … per section, Total” value ([1]; 0.008 mg/body i.v.) was 0 ± 0!!. The “number of mice having intrapleural or intraperitoneal metastatic nodules, dose dependence (in words)” value ([1]; 0.001, 0.004 and 0.008 mg/body i.v.) was “decreased as the dose increased”, the “action of suppressing the lung metastasis of B16-F0 compared with cPA-5” value ([1]; 0.004 and 0.008 mg/body i.v.) was “stronger than that of cPA-5” and the “Body weight (g) day 0” value ([2]; 0.001 mg/body i.v.) was 15.9 ± 0.6 g. The “Body weight (g) day 4” value ([2]; 0.001 mg/body i.v.) was 15.5 ± 0.5 g, the “Body weight (g) day 7” value ([2]; 0.001 mg/body i.v.) was 15.8 ± 0.7 g and the “Body weight (g) day 11” value ([2]; 0.001 mg/body i.v.) was 16.5 ± 1.0 g. The “Body weight (g) day 14” value ([2]; 0.001 mg/body i.v.) was 17.1 ± 1.2 g, the “Body weight (g) day 0” value ([2]; 0.004 mg/body i.v.) was 15.9 ± 0.6 g and the “Body weight (g) day 4” value ([2]; 0.004 mg/body i.v.) was 16.0 ± 0.5 g. For the same substance, the “Body weight (g) day 7” value ([2]; 0.004 mg/body i.v.) was 16.1 ± 0.6 g, the “Body weight (g) day 11” value ([2]; 0.004 mg/body i.v.) was 16.7 ± 0.6 g and the “Body weight (g) day 14” value ([2]; 0.004 mg/body i.v.) was 17.6 ± 0.9 g. For the same substance, the “Body weight (g) day 0” value ([2]; 0.008 mg/body i.v.) was 15.9 ± 0.6 g, the “Body weight (g) day 4” value ([2]; 0.008 mg/body i.v.) was 15.4 ± 0.5 g and the “Body weight (g) day 7” value ([2]; 0.008 mg/body i.v.) was 15.9 ± 0.5 g. For the same substance, the “Body weight (g) day 11” value ([2]; 0.008 mg/body i.v.) was 16.8 ± 0.5 g, the “Body weight (g) day 14” value ([2]; 0.008 mg/body i.v.) was 17.0 ± 0.4 g and the “effect on changes in body weight (in words)” value ([2]; 0.001-0.008 mg/body i.v., days 0 to 14) was “no effect on changes in body weight”. For the same substance, the “body weight compared with the medium group at each measurement (in words)” value ([2]; days 0, 4, 7, 11, 14) was “no significant difference”.
